The source of these data is patent US11058654B2, “Compositions and methods for the treatment of hemoglobinopathies and thalassemias” (AXCELLA HEALTH INC., priority 2018, dated 2021).

Type in all cases: cell-based, human
Assay [1] relates to whole blood of healthy control donors. The assay is described as follows: Reactive oxygen species (DCF fluorescence, H2O2) in whole blood of healthy controls. The settings on record: healthy control donors; treated with H2O2; dose-responsive. How it is done: (§1) Whole blood samples were appropriately diluted in Ca^2+- and Mg^2+-free Dulbecco's phosphate buffered saline (DPBS, Life Technologies) and the concentration of erythrocytes (RBC/ml) was measured on a Cellometer K2 Fluorescent Viability Cell Counter according to the manufacturer's RBC/AOPI protocol (Nexcelom Biosciences).
(§2) Cells were then diluted to 1*10^6 RBC/ml into either prewarmed 37° C. […] 2′-7′-dichlorofluorescin diacetate (DCF, Millipore Sigma), 20 mM in dimethyl sulfoxide (DMSO, Fisher) were added to a working concentration of 100 μM. Cells were incubated with dye for 15 minutes at 37° C., 5% CO2 in a tissue culture incubator, washed once, and resuspended in the 0.9 volumes of the same prewarmed 37° C. buffer with 5 minute spins at 500× g, accel/decal=5 in a swing arm centrifuge (Beckman Coulter). […] Where possible due to solubility constrains, pH-7.4-adjusted stock solutions of amino acids were used. Wells were mixed by pipetting and plates incubated at 37° C., 5% CO2 in a tissue culture incubator for 30 minutes. Optionally, 40 mM H2O2(Millipore Sigma) freshly prepared in the same buffer was added to bring the concentration to 2 mM, wells mixed by pipetting, and plates were incubated an additional 30, 60, 120, or 240 minutes before fluorescence measurement of ROS signal on a Synergy H4 (BioTek) microplate reader with excitation=488 nm and emission=530 nm, and gain either set to autogain, 75, or 100.

Assay [2] deals with sickle cell disease patient blood. The assay is described as follows: Reactive oxygen species (DCF fluorescence, H2O2) in sickle cell disease patient blood. As to conditions: treated with H2O2 and untreated in DPBS. On the procedure: as §1, §2
A further assay deals with ICAM-1. The assay is described as follows: ICAM-1 cell integrated intensity in HLMVEC treated with TNFa. As to conditions: 0.5 ng/mL TNFα; amino acids at 20×; 24 hours; in words. From the text:
(§3) A VEC model was employed to assess the ability of amino acids to influence aspects of vascular dysfunction in SCD. TNFa treatment of healthy donor HLMVEC mimics the SCD disease state and induces expression of adhesion markers ICAM-1 and VCAM-1, and secretion of proinflammatory cytokine IL-6. It is established that levels of ICAM-1, VCAM-1, and IL-6 can contribute to SCD pathology and correlate with the incidence and severity of complications in SCD patients. The VEC model sought to test the ability of amino acids to reduce the TNFa-induced disease phenotype by lowering expression of adhesion markers (ICAM-1 and VCAM-1) and inflammatory cytokines (IL-6) while promoting VEC health and viability.
Primary Human Lung Microvascular Endothelial Cells (HLMVEC; Lonza) were seeded at 6,000 cells per well in Endothelial Cell Growth Basal Medium-2 (Lonza) supplemented with Fetal Bovine Serum (FBS; Lonza), human EGF (Lonza), human VEGF (Lonza), R3-Insulin-like Growth Factor-1 (Lonza), ascorbic acid (Lonza), hydrocortisone (Lonza), human FGF-beta (Lonza), and gentamicin/amphotericin-b (Lonza) in a 96-well plate (Thermo Fisher). […]
(§4) Antibody binding was detected by fluorescence microscopy using a high content imager (Molecular Devices). Images were analyzed using MetaXpress 6 software to determine the integrated intensity per cell for each wavelength corresponding to ICAM-1 or VCAM-1.

The test system of another assay is VCAM-1. The assay is described as follows: VCAM-1 cell integrated intensity in HLMVEC treated with TNFa. The settings on record: 0.5 ng/mL TNFα; amino acids at 20×; 24 hours; in words.
Source text: as §3
Primary Human Lung Microvascular Endothelial Cells (HLMVEC; Lonza) were seeded at 6,000 cells per well in Endothelial Cell Growth Basal Medium-2 (Lonza) supplemented with Fetal Bovine Serum (FBS; Lonza), human EGF (Lonza), human VEGF (Lonza), R3-Insulin-like Growth Factor-1 (Lonza), ascorbic acid (Lonza), hydrocortisone (Lonza), human FGF-beta (Lonza), and gentamicin/amphotericin-b (Lonza) in a 96-well plate (Thermo Fisher). The cells were incubated for 45 minutes at room temperature, then incubated overnight at 37° C./5% CO2.
Following overnight incubation, cell were washed once with 150 μL of Dulbecco's phosphate buffered saline (DPBS; Gibco), and then treated with Endothelial Basal Medium MCB-131 (amino acid, glucose, sodium pyruvate, and phenol red free; US Biologicals) containing a defined custom amino acid concentration based on physiological concentrations in blood of patients with SCD (thus recapitulating observed metabolic imbalances such as the depletion of certain essential amino acids including arginine and aspartate and enrichment of certain non-essential amino acids including glutamate and asparagine), dialyzed FBS (Hyclone), human EGF (Lonza), human VEGF (Lonza), R3-Insulin-like Growth Factor-1 (Lonza), ascorbic acid (Lonza), hydrocortisone (Lonza), human FGF-beta (Lonza), and gentamicin/amphotericin-b (Lonza), glucose, 10 mM HEPES, sodium pyruvate, and sodium bicarbonate supplemented with one of the following: • a. PBS (vehicle control), • b. 0.5 ng/mL Tumor Necrosis Factor alpha (TNFα) and PBS, or; • c. 0.5 ng/mL TNFα and amino acid treatments at 20× mean physiological concentrations in plasma based on values published in the Human Metabolome Database (HMDB) in PBS.
After 24 hours of treatment, cells were washed once with 150 μL of DPBS (Gibco), then fixed with 4% paraformaldehyde. […]
as §4

Take `CC(=O)N[C@@H](CS)C(=O)O` [N-Acetyl Cysteine, N-acetylcysteine]: the “ROS measured in whole blood” value in assay [1] and in assay [2] was “reduced ROS” throughout. The “TNF-α induced ICAM-1 expression levels in HLMVEC” value in the assay on ICAM-1 is “reduced levels of ICAM-1 expression to a lesser extent”. Moreover, the “VCAM-1 expression in HLMVEC” value in the assay with VCAM-1 is “greatly reduced”.
